37 compounds from patent publication US11155523B2, “Biphenyl compound as CCR2/CCR5 receptor antagonist” (Medshine Discovery Inc., priority 2016, dated 2021) can be followed below.

The target of assay [1] is T1, CCR5 (Homo sapiens, UniProt P51681).
T1 construct: expressed in transfected cells; host or cells: HEK293, clone C13, passage P4
Kind of assay: CCR5 in vitro test: intracellular calcium signal detected by FLIPR. It counts as cell-based. As to conditions: HEK293 cells expressing CCR5, agonist RANTES at EC80, calcium signal. On the procedure: (§1) Experimental Example 1: CCR2/CCR5 In Vitro Test
(§2) The intracellular calcium signal was detected by FLIPR, and the IC50 value of the compound was used as an index to evaluate the inhibitory effect of the compound on CCR2 and CCR5 receptors.
(§3) 1. Cell line: The cells were inoculated and incubated in a 5% CO2 incubator at 37° C. overnight.
(§4) CCR2/CCR5 density: 1 M (20 k/well)
(§5) 2. Reagents: Fluo-4 Direct, (Invitrogen, Cat #F10471)
(§6) The compound was dissolved in DMSO to prepare a 10 mM solution, and the compound solution was placed in a nitrogen box.
(§7) Agonist reference compounds:
(§8) Preparation of probenecid in FLIPR assay buffer: 1 mL of FLIPR assay buffer was added to […] of probenecid to prepare a 250 mM solution, which is prepared fresh daily.
(§9) 2× (8 μM) Fluo-4 Direct™ Loading Buffer (per 10 mL) • Thaw a bottle of Fluo-4 Direct™ crystal (F10471). • Add 10 mL of FLIPR assay buffer to the vial. • Add 0.2 mL of probenecid to each 10 mL of Fluo-Direct. The final concentration of the assay was 2.5 mM. • Rotate it and place for >5 minutes (in absence of light). • Prepare fresh daily.
(§10) MCP-1 was diluted in FLIPR assay buffer 1:2 into 10 points, starting at 0.5 uM (final 100 nM). RANTES was diluted in FLIPR assay buffer 1:3 into 10 points, starting at 0.5 uM (final 100 nM). 20 uL of serially diluted compound buffer was added to each well of the DRC plate according to the compound plate map.
(§11) Standard compound was diluted in DMSO 1:3 into 11 points, starting at 1 mM. Test compound was diluted in DMSO 1:3 into 11 points, starting at 2 mM. 250 nL of compound solution was transferred into a cell plate using Echo (Greiner #781946).
(§12) (c) Take the cell plate out of the incubator, and gently dispense 20 uL of 2× Fluo-4 Direct wash-free loading buffer into a 384-well cell culture plate using a pipette. The final cell plate is 40 μL in volume.
(§13) (d) Incubate for 50 minutes at 37° C. under 5% CO2, and for 10 minutes at room temperature.
(§14) (e) Take the cell plate out of the incubator, and place it in FLIPR. Place the composite plate and the tip box in FLIPR.
(§15) (f) For DRC plate: • 1) Run the program on FLIPRTETRA. • 2) Read the fluorescent signal. • 3) Transfer 10 μL of compound from the DRC plate to the cell plate. • 4) Read the fluorescent signal. • 5) Calculate the “maximum−minimum” from Read 90 to the maximum allowed. Use FLIPR to calculate the EC80 value of each cell line. • 6) Prepare 5×EC80 concentration of the agonist reference compound.
(§16) (g) For the composite plate (1-add): • 1) Run the program on FLIPRTETRA. • 2) Transfer 10 μl, of 5×EC80 concentration of the agonist reference compound from the composite plate to the cell plate. • 3) Read the fluorescent signal. • 4) Calculate the “maximum−minimum” from Read 90 to the maximum allowed.
(§17) (h) Analyze the data using Prism, and calculate the IC50 value of the compound.

The target in assay [2] is T2, CCR2 (Homo sapiens, UniProt P41597).
T2 construct: expressed in transfected cells; host or cells: HEK293, clone C7, passage P6
T2 sequence (P41597 whole entry, species assumed): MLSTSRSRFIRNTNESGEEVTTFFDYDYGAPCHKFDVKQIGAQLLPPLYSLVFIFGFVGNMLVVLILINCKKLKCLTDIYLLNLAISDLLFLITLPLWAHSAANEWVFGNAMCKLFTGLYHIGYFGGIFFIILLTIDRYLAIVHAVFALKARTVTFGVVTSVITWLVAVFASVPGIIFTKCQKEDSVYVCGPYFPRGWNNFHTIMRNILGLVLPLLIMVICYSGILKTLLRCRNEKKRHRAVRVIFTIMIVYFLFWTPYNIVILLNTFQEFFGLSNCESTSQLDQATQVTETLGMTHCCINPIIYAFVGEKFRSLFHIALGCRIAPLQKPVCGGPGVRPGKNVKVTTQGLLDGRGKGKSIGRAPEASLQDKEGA
Put plainly: CCR2 in vitro test: intracellular calcium signal detected by FLIPR. The class given is cell-based. As to conditions: HEK293 cells expressing CCR2, agonist MCP-1 at EC80, calcium signal. The protocol:
as §1, §2, §3, §4, §5, §6, §7, §8, §9, §10, §11, §12, §13, §14, §15, §16, §17
(A change in cytosolic calcium serves as a functional read-out for many receptors and channels.)

T1 sequence (P51681 whole entry, species assumed): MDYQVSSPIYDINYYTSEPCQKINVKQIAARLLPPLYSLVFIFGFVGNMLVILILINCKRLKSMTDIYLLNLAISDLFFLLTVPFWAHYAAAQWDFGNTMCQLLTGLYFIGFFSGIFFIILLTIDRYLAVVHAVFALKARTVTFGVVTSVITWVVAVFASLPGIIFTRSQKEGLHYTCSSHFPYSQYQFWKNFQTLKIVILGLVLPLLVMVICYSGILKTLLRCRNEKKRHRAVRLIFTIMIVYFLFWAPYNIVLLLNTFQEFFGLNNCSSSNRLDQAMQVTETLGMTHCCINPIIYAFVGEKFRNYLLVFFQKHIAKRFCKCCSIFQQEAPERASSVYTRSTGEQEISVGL

`CCCCOCCOc1ccc(-c2ccc(OC)c(/C=C/C(=O)Nc3ccc([S@@+]([O-])Cc4cncn4CC)cc3)c2)cc1` [WX040]: the IC50 is 10.5 nM in assay [1] and 11.3 nM in assay [2].

Regarding `CCCCOCCOc1ccc(-c2ccc(C)c(/C=C/C(=O)Nc3ccc([S+]([O-])Cc4cncn4CC)cc3)c2)cc1` (centres unmarked) [WX041], the IC50 worked out at 21.4 nM in assay [1] and 22.5 nM in assay [2].

Take `CCCCOCCOc1ccc(-c2cc(C)c(OC)c(/C=C/C(=O)Nc3ccc([S@@+]([O-])Cc4cncn4CCC)cc3)c2)cc1` [WX042]: the values for the IC50 in assay [1] and in assay [2] were 4 nM and 52.8 nM, respectively.

As to `CCCCOCCOc1ccc(-c2cc(/C=C/C(=O)Nc3ccc([S@@+]([O-])Cc4cncn4CCC)cc3)c(OC)cc2Cl)cc1` [WX043], the values for the IC50 in assay [1] and in assay [2] were 9.1 nM and 250 nM, respectively.

As to `CCCCOCCOc1ccc(-c2ccc(C#N)c(/C=C/C(=O)Nc3ccc([S@@+]([O-])Cc4cncn4CCC)cc3)c2)cc1` [WX044], the IC50 amounted to 16.1 nM in assay [1] and 293 nM in assay [2].

As for `CCCCOCCOc1ccc(-c2ccc(OC)c(/C=C/C(=O)Nc3ccc([S+]([O-])Cc4c(C)ncn4CC)cc3)c2)cc1` (centres unmarked) [WX045], the IC50 was 14.8 nM in assay [1] and 77.6 nM in assay [2].

On to `CCCCOCCOc1ccc(-c2ccc(OC(F)F)c(/C=C/C(=O)Nc3ccc([S@+]([O-])Cc4c(C)ncn4CC)cc3)c2)cc1` [WX046], for which the results for the IC50 in assay [1] and in assay [2] were 2.8 nM and 1.1 nM, respectively.

`CCCCOc1ccc(-c2ccc(OC)c(/C=C/C(=O)Nc3ccc([S@@+]([O-])Cc4cncn4CCC)cc3)c2)cc1` [WX048]: the IC50 was 2.6 nM in assay [1] and 11.8 nM in assay [2].

For the compound `CCCCOCCOc1ccc(-c2ccc(O)c(/C=C/C(=O)Nc3ccc([S@@+]([O-])Cc4cncn4CCC)cc3)c2)cc1` [WX049], the IC50 in assay [1] turned out to be 9.2 nM; in assay [2], 13.3 nM.

As for `CCCOCCOc1ccc(-c2ccc(OC)c(/C=C/C(=O)Nc3ccc([S@@+]([O-])Cc4cncn4CCC)cc3)c2)cc1` [WX050], the IC50 in assay [1] was determined as 20.8 nM; in assay [2] it was 12.6 nM.

For `CCCCOCCOc1ccc(-c2ccc(OC(F)F)c(/C=C/C(=O)Nc3ccc([S@@+]([O-])Cc4cncn4CCC)cc3)c2)cc1` [WX051], the IC50 amounted to 1.4 nM in assay [1] and 5.5 nM in assay [2].

In the case of `CCCOc1ccc(-c2ccc(OC(F)F)c(/C=C/C(=O)Nc3ccc([S@@+]([O-])Cc4cncn4CCC)cc3)c2)cc1` [WX052], the IC50 turned out to be 11.9 nM in assay [1] and 80.8 nM in assay [2].

On to `CCCCOCCOc1ccc(-c2cc(Cl)c(OC)c(/C=C/C(=O)Nc3ccc([S@@+]([O-])Cc4cncn4CCC)cc3)c2)cc1` [WX053], for which the IC50 in assay [1] turned out to be 1.3 nM; in assay [2], 5.9 nM.

For the compound `CCCCOCCOc1ccc(-c2ccc(OC(F)(F)F)c(/C=C/C(=O)Nc3ccc([S@@+]([O-])Cc4c(C)ncn4CC)cc3)c2)cc1` [WX054], the values for the IC50 in assay [1] and in assay [2] were 9.2 nM and 43.4 nM, respectively.

As for `CCCCOCCOc1ccc(-c2ccc(OC(F)(F)F)c(/C=C/C(=O)Nc3ccc([S@+]([O-])Cc4c(C)ncn4CC)cc3)c2)cc1` [WX055], the concentration for half-maximal inhibition (IC50) in assay [1] is 6.4 nM; in assay [2], 7.6 nM.

Turning to `CCCCOCCOc1ccc(-c2ccc(OC)c(/C=C/C(=O)Nc3ccc([S+]([O-])Cc4cnccc4C)cc3)c2)cc1` (centres unmarked) [WX056], the IC50 in assay [1] was found to be 16.6 nM; in assay [2], 71.1 nM.

As to `CCCCOCCOc1ccc(-c2ccc([S+]([O-])C(C)C)c(/C=C/C(=O)Nc3ccc([S@@+]([O-])Cc4c(C)ncn4CC)cc3)c2)cc1` (some centres unmarked) [WX057], the IC50 in assay [1] is 3.5 nM; in assay [2], 24.7 nM.

In the case of `CCCCOCCOc1ccc(-c2ccc(SC(C)C)c(/C=C/C(=O)Nc3ccc([S@@+]([O-])Cc4cncn4CCC)cc3)c2)cc1` [WX058], the figures for the IC50 in assay [1] and in assay [2] were 5.7 nM and 28.2 nM, respectively.

On to `CCCCOCCOc1ccc(-c2cc(C)cc(/C=C/C(=O)Nc3ccc([S@@+]([O-])Cc4cncn4CCC)cc3)c2)cc1` [WX059], for which the IC50 was 8.5 nM in assay [1] and 9.9 nM in assay [2].

As to `CCCCOCCOc1ccc(-c2ccc(C(F)(F)F)c(/C=C/C(=O)Nc3ccc([S@@+]([O-])Cc4cncn4CCC)cc3)c2)cc1` [WX060], the values for the IC50 in assay [1] and in assay [2] were 4.1 nM and 18.5 nM, respectively.

`CCCCOCCOc1ccc(-c2ccc(OC(F)F)c(/C=C/C(=O)Nc3ccc([S@@+]([O-])Cc4c(C)ncn4CC)cc3)c2)cc1` [WX061]: the IC50 amounted to 15.2 nM in assay [1] and 8.9 nM in assay [2].

In the case of `CCCOc1ccc(-c2ccc(OC(F)F)c(/C=C/C(=O)Nc3ccc([S@@+]([O-])Cc4c(C)ncn4CC)cc3)c2)cc1` [WX062], the IC50 in assay [1] came to 20.5 nM; in assay [2], 84.5 nM.

With `CCCOc1ccc(-c2ccc(OC(F)F)c(/C=C/C(=O)Nc3ccc([S@+]([O-])Cc4c(C)ncn4CC)cc3)c2)cc1` [WX063], the IC50 in assay [1] was 1.4 nM; in assay [2], 9.4 nM.

Take `CCCOCCOc1ccc(-c2ccc(OC(F)F)c(/C=C/C(=O)Nc3ccc([S@@+]([O-])Cc4cncn4CCC)cc3)c2)cc1` [WX064]: the IC50 in assay [1] was 6.1 nM; in assay [2] it was 12.8 nM.

As to `CCCOCCOc1ccc(-c2ccc(OC)c(/C=C/C(=O)Nc3ccc([S@@+]([O-])Cc4c(C)ncn4CC)cc3)c2)cc1` [WX065], the figures for the IC50 in assay [1] and in assay [2] were 68 nM and 49.6 nM, respectively.

With `CCCOCCOc1ccc(-c2ccc(OC)c(/C=C/C(=O)Nc3ccc([S@+]([O-])Cc4c(C)ncn4CC)cc3)c2)cc1` [WX066], the IC50 worked out at 10.1 nM in assay [1] and 6.5 nM in assay [2].

Take `CCCOCCOc1ccc(-c2ccc(OCC)c(/C=C/C(=O)Nc3ccc([S@@+]([O-])Cc4cncn4CCC)cc3)c2)cc1` [WX067]: the IC50 was 0.9 nM in assay [1] and 16.8 nM in assay [2].

As to `CCCOCCOc1ccc(-c2ccc(OCC)c(/C=C/C(=O)Nc3ccc([S+]([O-])Cc4c(C)ncn4CCC)cc3)c2)cc1` (centres unmarked) [WX069], the values for the IC50 in assay [1] and in assay [2] were 1 nM and 35.3 nM, respectively.

With `CCCCOCCOc1ccc(-c2ccc(C(F)(F)F)c(/C=C/C(=O)Nc3ccc([S@@+]([O-])Cc4c(C)ncn4CC)cc3)c2)cc1` [WX070], the IC50 in assay [1] is 8.4 nM; in assay [2], 39.2 nM.

As for `CCCCOCCOc1ccc(-c2ccc(C(F)(F)F)c(/C=C/C(=O)Nc3ccc([S@+]([O-])Cc4c(C)ncn4CC)cc3)c2)cc1` [WX071], the IC50 in assay [1] came out at 3.4 nM; in assay [2], 4.5 nM.

With `CCCCOCCOc1ccc(-c2ccc(C3CCCC3)c(/C=C/C(=O)Nc3ccc([S@@+]([O-])Cc4c(C)ncn4CC)cc3)c2)cc1` [WX072], the IC50 turned out to be 5.9 nM in assay [1] and 11.9 nM in assay [2].

Turning to `CCCCOCCOc1ccc(-c2ccc(C3CCCC3)c(/C=C/C(=O)Nc3ccc([S@+]([O-])Cc4c(C)ncn4CC)cc3)c2)cc1` [WX073], the IC50 came out at 6.5 nM in assay [1] and 11.9 nM in assay [2].

`CCCOCCOc1ccc(-c2ccc(OC(F)F)c(/C=C/C(=O)Nc3ccc([S@+]([O-])Cc4c(C)ncn4CC)cc3)c2)cc1` [WX074]: the IC50 in assay [1] came to 3.5 nM; in assay [2], 5.4 nM.

Turning to `CCCCOCCOc1ccc(-c2ccc(OC)c(/C=C/C(=O)Nc3ccc([S@+]([O-])Cc4c(C)ncn4CCC)cc3)c2)cc1` [WX075], the IC50 in assay [1] was determined as 2.4 nM; in assay [2], 17.3 nM.

On to `CCCCOCCOc1ccc(-c2ccc(OC)c(/C=C/C(=O)Nc3ccc([S@@+]([O-])Cc4c(C)ncn4CCC)cc3)c2)cc1` [WX076], for which the figures for the IC50 in assay [1] and in assay [2] were 8.5 nM and 42.2 nM, respectively.

`CCCOCCOc1ccc(-c2ccc(OC(F)F)c(/C=C/C(=O)Nc3ccc([S@+]([O-])Cc4c(C)ncn4CCC)cc3)c2)cc1` [WX080]: the IC50 came out at 15.1 nM in assay [1] and 25.1 nM in assay [2].

`CCCCOCCOc1ccc(-c2ccc(OC(F)F)c(/C=C/C(=O)Nc3ccc([S@+]([O-])Cc4c(C)ncn4CCC)cc3)c2)cc1` [WX081]: the IC50 in assay [1] worked out at 5.5 nM; in assay [2], 12.5 nM.

The IC50 is the concentration that gives 50% inhibition.
